Assay results taken from patent US10329289B2, “6,7-dihydro-5H-pyrrolo[3,4-B]pyridin-5-one allosteric modulators of the M4 muscarinic acetylcholine receptor” (Merck Sharp & Dohme Corp., priority 2015, dated 2019).
pEC50: −log10 of the molar value.

Target: T1, human M4 muscarinic acetylcholine receptor (Homo sapiens, UniProt P08173)
T1 construct: expressed in transfected cells; host or cells: CHO-K1
T1 sequence (P08173 1-479): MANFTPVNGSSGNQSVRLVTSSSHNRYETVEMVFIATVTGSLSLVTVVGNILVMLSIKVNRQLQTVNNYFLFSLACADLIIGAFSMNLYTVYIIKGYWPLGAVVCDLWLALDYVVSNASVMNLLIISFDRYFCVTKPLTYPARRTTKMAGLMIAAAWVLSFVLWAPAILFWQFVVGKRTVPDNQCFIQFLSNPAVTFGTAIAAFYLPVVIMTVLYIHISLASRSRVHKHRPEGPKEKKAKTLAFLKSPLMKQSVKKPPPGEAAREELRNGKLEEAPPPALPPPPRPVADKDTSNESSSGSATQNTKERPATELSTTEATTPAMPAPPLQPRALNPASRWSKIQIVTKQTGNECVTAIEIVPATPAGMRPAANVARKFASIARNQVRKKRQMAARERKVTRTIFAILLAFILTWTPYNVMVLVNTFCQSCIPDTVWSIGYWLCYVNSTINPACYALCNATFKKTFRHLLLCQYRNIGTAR
Test: human FLIPR-based M4 PAM assay (Ca2+ mobilization, CHO-K1 cells with human M4 receptor and Gαqi5)
Format: cell-based
Conditions: acetylcholine at 20% of maximum response, read-out: M4 PAM IP
Method in brief: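 Calcium-mobilization (FLIPR) readout in dye-loaded CHO-K1 cells co-expressing human M4 receptor and Gαqi5. Potentiation measured against acetylcholine at a concentration giving 20% of maximal response, with an optional 70% addition; the reported value is the curve inflection point from a 4-parameter logistic fit.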

Row | pEC50 | Structure (SMILES)
1 | 7.07 | CCc1cc2c(nc1N1CCC(Oc3ccc(OC)nc3)CC1)CNC2=O [Example 228, 3-Ethyl-2-(4-((6-methoxypyridin-3-yl)oxy)piperidin-1-yl)-6,7-dihydro-5H-pyrrolo[3,4-b]pyridin-5-one]
2 | 7.44 | CCc1cc2c(nc1N1CCC(OCC3(C)CC3)CC1)CNC2=O [Example 229, 3-ethyl-2-(4-((1-methylcyclopropyl)methoxy)piperidin-1-yl)-6,7-dihydro-5H-pyrrolo[3,4-b]pyridin-5-one]
3 | 6.22 | CCc1c(C)c(N2CCC(Oc3ccc(OC)nc3)CC2)nc2c1C(=O)NC2 [Example 229A, 4-ethyl-2-(4-((6-methoxypyridin-3-yl)oxy)piperidin-1-yl)-3-methyl-6,7-dihydro-5H-pyrrolo[3,4-b]pyridin-5-one]
4 | 5.67 | COc1ccc(OC2CCN(c3nc4c(cc3C(F)(F)F)C(=O)NC4)CC2)cn1 [Example 230, 2-(4-((6-Methoxypyridin-3-yl)oxy)piperidin-1-yl)-3-(trifluoromethyl)-6,7-dihydro-5H-pyrrolo[3,4-b]pyridin-5-one]
5 | 7.29 | Cc1cc2c(nc1N1CCC(Oc3ccccc3)CC1)CN(CCO)C2=O [Example 231, 6-(2-Hydroxyethyl)-3-methyl-2-(4-phenoxypiperidin-1-yl)-6,7-dihydro-5H-pyrrolo[3,4-b]pyridin-5-one]
6 | 7.09 | CCN1Cc2nc(N3CCC(Oc4ccc(OC)nc4)CC3)c(C)cc2C1=O [Example 232, 6-Ethyl-2-(4-((6-methoxypyridin-3-yl)oxy)piperidin-1-yl)-3-methyl-6,7-dihydro-5H-pyrrolo[3,4-b]pyridin-5-one]
7 | 6.40 | CCC1c2nc(N3CCC(Oc4ccc(OC)nc4)CC3)c(C)cc2C(=O)N1CC (stereo not shown) [Example 233, 6,7-Diethyl-2-(4-((6-methoxypyridin-3-yl)oxy)piperidin-1-yl)-3-methyl-6,7-dihydro-5H-pyrrolo[3,4-b]pyridin-5-one]
8 | 6.42 | CCOc1ccc(OC2CCN(c3nc4c(cc3C)C(=O)N[C@H]4CCO)CC2)cn1 [Example 234A, (S)-2-(4-((6-Ethoxypyridin-3-yl)ox)piperidin-1-yl)-7-(2-hydroxyethyl)-3-methyl-6,7-dihydro-5H-pyrrolo[3,4-b]pyridin-5-one]
9 | 6.49 | COc1ccc(OC2CCN(c3nc4c(cc3C)C(=O)N(CCN(C)C)C4)CC2)cn1 [Example 235, 6-(2-(dimethylamino)ethyl)-2-(4-((6-methoxypyridin-3-yl)oxy)piperidin-1-yl)-3-methyl-6,7-dihydro-5H-pyrrolo[3,4-b]pyridin-5-one]
10 | 6.50 | Cc1cc2c(nc1N1CCC(Oc3cccc(C#N)c3)CC1)CN(CCN(C)C)C2=O [Example 236, 3-((1-(6-(2-(dimethylamino)ethyl)-3-methyl-5-oxo-6,7-dihydro-5H-pyrrolo[3,4-b]pyridin-2-yl)piperidin-4-yl)oxy)benzonitrile]
11 | 6.84 | Cc1cc2c(nc1N1CCC(Oc3cnc4c(c3)COC4)CC1)CN(CCO)C2=O [Example 236A, 2-(4-((5,7-dihydrofuro[3,4-b]pyridin-3-yl)oxy)piperidin-1-yl)-6-(2-hydroxyethyl)-3-methyl-6,7-dihydro-5H-pyrrolo[3,4-b]pyridin-5-one]
12 | 7.17 | Cc1cc2c(nc1N1CC[C@@H](Oc3ccccc3)[C@@H](F)C1)CN(CCO)C2=O [Example 237, 2-((3S,4R)-3-fluoro-4-phenoxypiperidin-1-yl)-6-(2-hydroxyethyl)-3-methyl-6,7-dihydro-5H-pyrrolo[3,4-b]pyridin-5-one]
13 | 7.31 | COc1ccc(OC2CCN(c3nc4c(cc3C)C(=O)N(CCO)C4)CC2)cn1 [Example 238, 6-(2-hydroxyethyl)-2-(4-((6-methoxypyridin-3-yl)oxy)piperidin-1-yl)-3-methyl-6,7-dihydro-5H-pyrrolo[3,4-b]pyridin-5-one]
14 | 7.44 | Cc1cc2c(nc1N1CCC(Oc3cccc(C#N)c3)CC1)CN(CCO)C2=O [Example 239, 3-((1-(6-(2-hydroxyethyl)-3-methyl-5-oxo-6,7-dihydro-5H-pyrrolo[3,4-b]pyridin-2-yl)piperidin-4-yl)oxy)benzonitrile]
15 | 7.07 | Cc1cc2c(nc1N1CCC(Oc3ccc4c(cnn4C)c3)CC1)CN(CCO)C2=O [Example 239A, 6-(2-hydroxyethyl)-3-methyl-2-(4-((1-methyl-1H-indazol-5-yl)oxy)piperidin-1-yl)-6,7-dihydro-5H-pyrrolo[3,4-b]pyridin-5-one]
16 | 7.40 | Cc1cc2c(nc1N1CCC(Oc3ccccc3)CC1)CN(C)C2=O [Example 240, 3,6-dimethyl-2-(4-phenoxypiperidin-1-yl)-6,7-dihydro-5H-pyrrolo[3,4-b]pyridin-5-one]
17 | 6.90 | CCc1cc2c(nc1N1CC[C@@H](Oc3ccc4c(cnn4C)c3)[C@@H](F)C1)CN(CCO)C2=O [Example 240A, 3-ethyl-2-((3S,4R)-3-fluoro-4-((1-methyl-1H-indazol-5-yl)oxy)piperidin-1-yl)-6-(2-hydroxyethyl)-6,7-dihydro-5H-pyrrolo[3,4-b]pyridin-5-one]
18 | 7.66 | Cc1cc2c(nc1N1CC[C@@H](Oc3ccccc3)[C@@H](F)C1)CN(C)C2=O [Example 241, 2-((3S,4R)-3-fluoro-4-phenoxypiperidin-1-yl)-3,6-dimethyl-6,7-dihydro-5H-pyrrolo[3,4-b]pyridin-5-one]
19 | 7.03 | Cc1cc2c(nc1N1CC[C@@H](Oc3ccc4c(cnn4C)c3)[C@H](F)C1)CN(CCO)C2=O [Example 241A, 2-((3R,4R)-3-fluoro-4-((1-methyl-1H-indazol-5-yl)oxy)piperidin-1-yl)-6-(2-hydroxyethyl)-3-methyl-6,7-dihydro-5H-pyrrolo[3,4-b]pyridin-5-one]
20 | 7.13 | CCN1Cc2nc(N3CCC(Oc4cccc(C#N)c4)CC3)c(C)cc2C1=O [Example 242, 3-((1-(6-ethyl-3-methyl-5-oxo-6,7-dihydro-5H-pyrrolo[3,4-b]pyridin-2-yl)piperidin-4-yl)oxy)benzonitrile]
21 | 7.14 | CCN1Cc2nc(N3CCC(Oc4ccccc4)CC3)c(C)cc2C1=O [Example 243, 6-ethyl-3-methyl-2-(4-phenoxypiperidin-1-yl)-6,7-dihydro-5H-pyrrolo[3,4-b]pyridin-5-one]
22 | 7.49 | CCN1Cc2nc(N3CC[C@@H](Oc4ccccc4)[C@@H](F)C3)c(C)cc2C1=O [Example 244, 6-ethyl-2-((3S,4R)-3-fluoro-4-phenoxypiperidin-1-yl)-3-methyl-6,7-dihydro-5H-pyrrolo[3,4-b]pyridin-5-one]
23 | 7.55 | CCN1Cc2nc(N3CCC(Oc4ccc5c(c4)COC5)CC3)c(C)cc2C1=O [Example 244A, 2-(4-((1,3-dihydro-2-benzofuran-5-yl)oxy)piperidin-1-yl)-6-ethyl-3-methyl-6,7-dihydro-5H-pyrrolo[3,4-b]pyridin-5-one]
24 | 7.12 | COc1ccc(OC2CCN(c3nc4c(cc3C)C(=O)N(C(C)C)C4)CC2)cn1 [Example 245, 6-isopropyl-2-(4-((6-methoxypyridin-3-yl)oxy)piperidin-1-yl)-3-methyl-6,7-dihydro-5H-pyrrolo[3,4-b]pyridin-5-one]
25 | 6.90 | Cc1cc2c(nc1N1CCC(Oc3cccc(C#N)c3)CC1)CN(C(C)C)C2=O [Example 246, 3-((1-(6-isopropyl-3-methyl-5-oxo-6,7-dihydro-5H-pyrrolo[3,4-b]pyridin-2-yl)piperidin-4-yl)oxy)benzonitrile]
